{"source": "patent US20220184108A1", "about": "“PHARMACEUTICAL AND NUTRITIONAL COMPOSITION TO MAXIMIZE NAD ENZYME'S HEALTH BENEFITS” (East West Products Corp., priority 2020, published 2022)", "origin": "cited, not measured here", "key": {"Slc12a8 NMN transporter": {"biological_target": "T1, Slc12a8 NMN transporter (Mus musculus, UniProt Q8VI23)", "T1 sequence (Q8VI23 1-705)": "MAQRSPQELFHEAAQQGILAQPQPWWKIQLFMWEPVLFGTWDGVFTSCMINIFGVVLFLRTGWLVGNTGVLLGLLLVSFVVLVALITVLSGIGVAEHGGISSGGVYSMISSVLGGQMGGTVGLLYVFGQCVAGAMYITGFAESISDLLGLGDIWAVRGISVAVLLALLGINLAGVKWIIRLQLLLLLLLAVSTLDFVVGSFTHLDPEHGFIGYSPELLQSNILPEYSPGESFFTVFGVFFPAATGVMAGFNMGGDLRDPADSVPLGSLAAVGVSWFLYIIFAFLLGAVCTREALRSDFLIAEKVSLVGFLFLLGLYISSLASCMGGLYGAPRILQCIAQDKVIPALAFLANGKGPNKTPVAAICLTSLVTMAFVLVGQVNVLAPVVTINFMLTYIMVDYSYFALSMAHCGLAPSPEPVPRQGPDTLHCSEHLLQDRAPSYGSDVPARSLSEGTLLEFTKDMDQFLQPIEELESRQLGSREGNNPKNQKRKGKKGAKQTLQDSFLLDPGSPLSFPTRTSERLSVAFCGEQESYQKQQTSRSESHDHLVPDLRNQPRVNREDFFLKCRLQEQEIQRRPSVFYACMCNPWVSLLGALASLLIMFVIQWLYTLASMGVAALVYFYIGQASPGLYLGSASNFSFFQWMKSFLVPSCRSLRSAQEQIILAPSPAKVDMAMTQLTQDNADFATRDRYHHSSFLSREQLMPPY", "details": "mice; through the Slc12a8 NMN transporter"}, "[1]": {"details": "doses of up to 500 mg; human study, Keio University School of Medicine"}}, "data": [{"smiles": "NC(=O)c1ccc[n+]([C@@H]2O[C@H](COP(=O)([O-])O)[C@@H](O)[C@H]2O)c1", "note": "[NMN, Nicotinamide mononucleotide]", "values": [{"measurement": "time for NMN to enter cells via the small intestines converting to NAD+", "setting": "Slc12a8 NMN transporter", "value": "≤ 10", "unit": "min"}, {"measurement": "safety in men", "setting": "[1]", "value": "safe"}]}]}
